Test results as given in EP1078634A1, “Medicament for inhibiting NF-kB” (Max Zeller Söhne AG, priority 1999, dated 2001).

system: NF-kB; assay: NF-kB binding to DNA, electrophoretic mobility shift assay (EMSA) with Jurkat T cells; assay type: cell-based; conditions: TNF-a stimulation
Text: Die in Beispiel 2 hergestellten Substanzen wurden in zellfreien und zellulären Testsystemen nach bekannten Methoden auf NF-kB hemmende Wirkung geprüft. […] Bestimmt wurde die in-vivo und die in-vitro NF-kB Bindung an DNA durch Messung der elektrophoretischen Mobilitätsverschiebung.
Die in vivo Bindung wurde mit Jurkat T-Zellen durchgeführt. Die Zellen wurden während einer Stunde mit verschiedenen Konzentrationen der verschiedenen Extrakte inkubiert und anschliessend mit TNF-a während einer Stunde stimuliert. Total-Protein-Extrakte der Zellen wurden gewonnen und in einem Assay auf elektrophoretische Mobilitätsverschiebung (electrophoretic mobility shift asasy, EMSA) auf NF-kB-bindende Aktivität geprüft.
Die in vitro Bindung wurde ebenfalls mit Jurkat T-Zellen geprüft. Zellextrakte von stimulierten wie unstimulierten Zellen wurden gewonnen. Gleiche Proteinmengen (10-20 µg) wurden 2 Stunden mit Konzentrationsreihen der verschiedenen Isatis-Extrakte inkubiert und schliesslich auf elektrophoretische Mobilitätsverschiebung (EMSA) analysiert.

Row | SMILES | NF-kB: Grenzkonzentration, bei der eben noch ein Hemmeffekt im EMSA feststellbar ist
1 | O=C1c2ccccc2-n2c1nc1ccc(Cl)cc1c2=O [Verbindung 5] | 50 µM/Liter
2 | O=C1c2cc(Cl)ccc2-n2c1nc1ccccc1c2=O [Verbindung 10] | 5 µM/Liter
3 | Nc1ccc2nc3n(c(=O)c2c1)-c1ccc(F)cc1C3=O [Verbindung 20] | 5 µM/Liter
4 | Cc1cc(C)c2nc3n(c(=O)c2c1)-c1ccc(F)cc1C3=O [Verbindung 24] | >100 µM/Liter
5 | CN1CCN(c2ccc3c(=O)n4c(nc3c2)C(=O)c2cc(F)ccc2-4)CC1 [Verbindung 32] | 10 µM/Liter
6 | CCOC(=O)c1ccc2c(c1)C(=O)c1nc3ccccc3c(=O)n1-2 [Verbindung 37] | >100 µM/Liter
7 | CC1CN(c2cc3c(cc2F)C(=O)c2nc4ccccc4c(=O)n2-3)CCN1C(=O)OC(C)(C)C (stereo not drawn) [Verbindung 42] | >100 µM/Liter
8 | CCCCCCCCS(=O)(=O)c1ccc2c(c1)C(=O)c1nc3c(OC)cccc3c(=O)n1-2 [Verbindung 69] | >100 µM/Liter
9 | O=C1c2cc(Cl)ccc2-n2c1nc1cc(N3CCOCC3)ccc1c2=O [Verbindung 86] | 0,5 µM/Liter
10 | CN(CC(=O)O)c1ccc2c(=O)n3c(nc2c1)C(=O)c1cc(Cl)ccc1-3 [Verbindung 99] | 1 µM/Liter
11 | CN(CCO)c1ccc2c(=O)n3c(nc2c1)C(=O)c1cc(OC(F)(F)F)ccc1-3 [Verbindung 110] | 5 µM/Liter

target: T1, COX-2 (Homo sapiens, UniProt P35354); assay: COX-2 inhibition in LPS-stimulated Mono Mac 6 cells (Keto PGF 1α ELISA, method of Berg et al.); assay type: cell-based; conditions: COX-2 versus COX-1, in words
T1 construct: Dabei wurden Mono Mac 6-Zellen mit unterschiedlichen Konzentrationen der Testsubstanzen während 30 min inkubiert; endogenous in cells; host or cells: Mono Mac 6 cells, LPS-stimulated
T1 sequence (P35354 18-604): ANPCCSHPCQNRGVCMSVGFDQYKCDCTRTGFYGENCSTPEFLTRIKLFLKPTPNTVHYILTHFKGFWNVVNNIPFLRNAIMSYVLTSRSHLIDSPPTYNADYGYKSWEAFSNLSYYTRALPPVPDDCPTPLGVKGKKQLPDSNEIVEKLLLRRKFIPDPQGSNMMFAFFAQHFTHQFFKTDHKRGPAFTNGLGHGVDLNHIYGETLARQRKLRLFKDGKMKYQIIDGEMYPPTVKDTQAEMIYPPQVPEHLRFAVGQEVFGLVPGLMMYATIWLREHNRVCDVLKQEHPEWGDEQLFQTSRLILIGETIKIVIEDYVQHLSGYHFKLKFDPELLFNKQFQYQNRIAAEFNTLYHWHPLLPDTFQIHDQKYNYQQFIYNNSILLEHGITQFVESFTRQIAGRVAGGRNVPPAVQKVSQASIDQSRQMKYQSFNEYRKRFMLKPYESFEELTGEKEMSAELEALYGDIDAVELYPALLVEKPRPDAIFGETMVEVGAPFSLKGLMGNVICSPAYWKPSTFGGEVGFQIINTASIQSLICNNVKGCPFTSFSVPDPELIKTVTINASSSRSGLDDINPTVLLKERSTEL
Protocol: Die Bestimmung der COX-2 inhibitorischen Wirkung der gemäss Beispiel 2 synthetisierten Verbindungen wurde mit Mono Max 6-Zellen nach der Methode von Berg et al., J. Pharmaco. Toxicol.
Dabei wurden Mono Mac 6-Zellen mit unterschiedlichen Konzentrationen der Testsubstanzen während 30 min inkubiert, anschliessend Lipopolysaccharid (LPS, 100 ng/ml) zupipettiert und während weiteren 6 Stunden inkubiert. Anschliessend wurde Arachidonsäure zugegeben (Endkonz. 30 µM), während 15 Min. inkubiert und das gebildete Keto PGF 1α mittels ELISA bestimmt.
In einer Variante wurden Testsubstanz und LPS zeitgleich eingesetzt. Die Messung der COX1 Hemmung erfolgte in HEL-Zellen nach der Methode von Berg et al., J. Pharmacol. Toxicol. […] Dabei wurden HEL Zellen mit unterschiedlichen Konzentrationen der Testsubstanzen während 30 Min. inkubiert, anschliessend Arachidonsäure zugesetzt (Endkonz. 30 uM), während 15 Min. inkubiert und das gebildete Tromboxan B2 mittels ELISA gemessen.

Row | SMILES | präferentielle Hemmung der induzierbaren COX-2
12 | O=C1c2cc(Cl)ccc2-n2c1nc1cc(N3CCOCC3)ccc1c2=O [Verbindung 86] | deutliche präferentielle Hemmung der induzierbaren COX-2
